The subject of the experiment is SARS-CoV-2. The experiment can be described thus: microbe, parasite or virus in culture. The note with it: Severe acute respiratory syndrome coronavirus 2, Vero C1008, 48 h.

`CC(C)C[C@H]1C(=O)N2CCC[C@H]2[C@]2(O)O[C@](NC(=O)[C@@H]3C=C4c5cccc6[nH]cc(c56)C[C@H]4N(C)C3)(C(C)C)C(=O)N12` [ERGOCRYPTINE] displayed an IC50 greater than 20 µM. Moreover, the IC50 (read-out: pIC50 (converted)) is greater than 20 µM.
In the case of `Cc1ncc(-c2csc(N=C(N)N)n2)[nH]1` [ZALTIDINE], the IC50 was greater than 20 µM. In addition, where the note is “read-out: pIC50 (converted)”, the IC50 is greater than 20 µM.
`Cc1cc(CC(=O)O)n(C)c1C(=O)c1ccc(Cl)cc1` [ZOMEPIRAC] yielded an IC50 greater than 20 µM. Where the note is “read-out: pIC50 (converted)”, the IC50 was greater than 20 µM.
With `C[N+]12CCC(CC1)C(OC(=O)C(O)(c1ccccc1)c1ccccc1)C2` (stereo not drawn), the IC50 is greater than 20 µM. Besides, where the note is “read-out: pIC50 (converted)”, the IC50 is greater than 20 µM.
The molecule `O=C(Cn1c(=O)sc2ccc(Cl)cc21)N1CCN(CCO)CC1` [TIARAMIDE] gave an IC50 greater than 20 µM. For the same molecule, the IC50 (read-out: pIC50 (converted)) was greater than 20 µM.
Regarding `COc1ccccc1OCC(O)CNC(C)C` (stereo not drawn) [MOPROLOL], the IC50 is greater than 20 µM. The IC50 (read-out: pIC50 (converted)) is greater than 20 µM.
For the molecule `CCCCCCCCCCCCCCCCOCCCOP(=O)(O)CO[C@H](C)Cn1cnc2c(N)ncnc21` [TENOFOVIR EXALIDEX], the IC50 is greater than 20 µM. In addition, the IC50 (read-out: pIC50 (converted)) was greater than 20 µM.
For `CNC(=O)c1ccc2cc([C@]3(O)CCn4cncc43)ccc2c1`, the IC50 was greater than 20 µM. Further, the IC50 (read-out: pIC50 (converted)) was greater than 20 µM.
For the molecule `COc1cc(C(=O)C(=O)N(C)[C@@H](Cc2ccc(Cl)cc2)C(=O)N(Cc2ccccc2)C(CCc2ccncc2)CCc2ccncc2)cc(OC)c1OC` [TIMCODAR], the IC50 is greater than 20 µM. The IC50 (read-out: pIC50 (converted)) was greater than 20 µM.
Regarding `O=C(/C=C/c1ccc(O)c(O)c1)O[C@@H]1C[C@](O)(C(=O)O)C[C@@H](O)[C@H]1O` [CHLOROGENIC ACID], the IC50 was greater than 20 µM. Besides, the IC50 (read-out: pIC50 (converted)) is greater than 20 µM.
Regarding `Nc1cc(C(Cl)=C(Cl)Cl)c(S(N)(=O)=O)cc1S(N)(=O)=O` [CLORSULON], the IC50 is greater than 20 µM. Where the note is “read-out: pIC50 (converted)”, the IC50 is greater than 20 µM.
For `Cc1ncc([N+](=O)[O-])n1CCO` [METRONIDAZOLE], the IC50 was greater than 20 µM. The IC50 (read-out: pIC50 (converted)) is greater than 20 µM.
Take `C[C@@]12C(=O)OC(=O)[C@]1(C)[C@H]1CC[C@@H]2O1` [CANTHARIDIN]: the IC50 is greater than 20 µM. In addition, the IC50 (read-out: pIC50 (converted)) is greater than 20 µM.
Take `Cc1c(N(C)CS(=O)(=O)O)c(=O)n(-c2ccccc2)n1C` [METAMIZOLE]: the IC50 was greater than 20 µM. Moreover, the IC50 (read-out: pIC50 (converted)) is greater than 20 µM.
`CC(=O)OC1CCC2(C)C3CC(=O)C4(C)C(CC5O[C@]6(CCC(C)CO6)C(C)C54)C3CC[C@H]2C1` (stereo partly drawn): the IC50 is greater than 20 µM. Moreover, the IC50 (read-out: pIC50 (converted)) is greater than 20 µM.
Turning to `COc1ccccc1Oc1c(NS(=O)(=O)c2ccc(C)cn2)nc(-c2ccncc2)nc1OC` [AVOSENTAN], the IC50 was greater than 20 µM. In addition, the IC50 (read-out: pIC50 (converted)) was greater than 20 µM.
The molecule `NC1(c2ccc(-c3nc4ccn5c(=O)[nH]nc5c4cc3-c3ccccc3)cc2)CCC1` [MK-2206] showed an IC50 greater than 20 µM. Further, for the setting “read-out: pIC50 (converted)”, the IC50 was greater than 20 µM.
Regarding `COc1ccc(OC)c(C(O)CNC(=O)CN)c1` (stereo not drawn) [MIDODRINE], the IC50 was greater than 20 µM. Moreover, the IC50 (read-out: pIC50 (converted)) is greater than 20 µM.
For `CC[C@H](CC[C@@H](C)[C@H]1CC[C@H]2[C@@H]3CC=C4C[C@@H](O)CC[C@]4(C)[C@H]3CC[C@]12C)C(C)C` [BETA-SITOSTEROL], the IC50 is greater than 20 µM. In addition, the IC50 (read-out: pIC50 (converted)) is greater than 20 µM.
Molecule `Cc1nc2cc(C(c3ccccc3)n3ccnc3)ccc2[nH]1` (stereo not drawn) [IRTEMAZOLE] returned an IC50 greater than 20 µM. For the same molecule, the IC50 (read-out: pIC50 (converted)) was greater than 20 µM.
Turning to `c1ccc2sc(SSc3nc4ccccc4s3)nc2c1` [BENZOTHIAZYL DISULFIDE], the IC50 is greater than 20 µM. Further, where the note is “read-out: pIC50 (converted)”, the IC50 was greater than 20 µM.
Regarding `COc1ccc2oc3ccccc3c(=O)c2c1`, the IC50 was greater than 20 µM. Moreover, the IC50 (read-out: pIC50 (converted)) was greater than 20 µM.
Molecule `CCC(NC(C)C)C(O)c1ccc(O)c2[nH]c(=O)ccc12` (stereo not drawn) [PROCATEROL] came in with an IC50 greater than 20 µM. Also, the IC50 (read-out: pIC50 (converted)) was greater than 20 µM.
In the case of `CCC1(c2ccccc2)C(=O)N(COC)C(=O)N(COC)C1=O` [ETEROBARB], the IC50 is greater than 20 µM. Moreover, where the note is “read-out: pIC50 (converted)”, the IC50 is greater than 20 µM.
